Reference: ChEMBL document CHEMBL4613241, “Disulfide Cleavage in a Dimeric Epipolythiodioxopiperazine Natural Product Diminishes Its Apoptosis-Inducing Effect but Enhances Autophagy in Tumor Cells” (2020)
The source made the active and inactive calls. No cut-off for these calls is given here.

Tests used:
[1] = tested on: HepG2; test: Induction of autophagy in human HepG2 cells assessed as ratio of LC3-2 to total Erk1/2 protein level at 0.5 uM after 12 hrs by Western blot analysis (reference value: 1); assay type: functional
[2] = tested on: HepG2; test: Induction of autophagy in human HepG2 cells ratio of LC3-2 level to total ERK level at 0.5 uM after 2 hrs in presence of CQ by Western blot analysis relative to CQ; assay type: functional
[3] = tested on: SW480; test: Antiproliferative activity against human SW480 cells assessed as reduction in cell viability by MTS assay; assay type: functional, cell-based
[4] = tested on: HepG2; test: Induction of autophagy in human HepG2 cells ratio of LC3-2 level to total ERK level at 0.5 uM after 2 hrs in presence of PFKFB3 siRNA and CQ by Western blot analysis relative to PFKFB3 siRNA; assay type: functional
[5] = tested on: HepG2; test: Induction of autophagy in human HepG2 cells assessed as ratio of LC3-2 level to total ERK level at 0.5 uM after 2 hrs by Western blot analysis (reference value: 1); assay type: functional
[6] = tested on: T-24; test: Induction of autophagy in human T24 cells assessed as increase in ratio of LC3-2 to total Erk1/2 protein level at 0.5 uM after 12 hrs by Western blot analysis; assay type: functional, cell-based
[7] = tested on: HepG2; test: Activation of AMPKalpha in human HepG2 cells assessed as ratio of phosphorylated ACCalpha at S79 residue to total ERK level at 0.5 uM incubated for 4 hrs in presence of CC by Western blot analysis relative to CC; assay type: cell-based
[8] = tested on: HepG2; test: Induction of autophagy in human HepG2 cells ratio of LC3-2 level to total ERK level at 0.5 uM after 2 hrs in presence of 2-DG and CQ by Western blot analysis relative to 2-DG; assay type: functional
[9] = target: Serine/threonine-protein kinase mTOR (Homo sapiens) (UniProt P42345); test: Inhibition of mTOR phosphorylation at S2448 residue in human HepG2 cells assessed as ratio of phosphorylated mTOR to total mTOR level at 0.5 uM after 4 hrs by Western blot analysis (reference value: 1); assay type: cell-based
[10] = tested on: HepG2; test: Induction of autophagy in human HepG2 cells assessed as ratio of LC3-2 level to total ERK level at 0.5 uM after 2 hrs in presence of CQ by Western blot analysis (reference value: 1); assay type: functional
[11] = tested on: HepG2; test: Activation of AMPKalpha in human HepG2 cells assessed as ratio of ACCalpha phosphorylation at S79 residue to total ERK level at 0.5 uM incubated for 4 hrs by Western blot analysis (reference value: 1); assay type: cell-based
[12] = tested on: HepG2; test: Induction of autophagy in human HepG2 cells assessed as accumulation of LC3-2 protein level at 0.5 uM after 4 hrs in presence of CQ by Western blot analysis analysis relative to CQ; assay type: functional
[13] = tested on: HepG2; test: Induction of autophagy in human HepG2 cells assessed as ratio of LC3-2 level to total ERK level at 0.5 uM after 2 hrs in presence of PFK15 by Western blot analysis (reference value: 1.1); assay type: functional
[14] = tested on: HepG2; test: Induction of autophagy in human HepG2 cells assessed as ratio of LC3-2 level to total ERK level at 0.5 uM after 2 hrs in presence of 2-DG and CQ by Western blot analysis (reference value: 3.9); assay type: functional
[15] = target: Serine/threonine-protein kinase mTOR (Homo sapiens) (UniProt P42345); test: Inhibition of mTOR phosphorylation at S2448 residue in human HepG2 cells assessed as ratio of phosphorylated mTOR to total ERK level at 1 uM after 4 hrs by Western blot analysis (reference value: 1); assay type: cell-based
[16] = tested on: HepG2; test: Induction of autophagy in human HepG2 cells assessed as ratio of LC3-2 level to total ERK level at 0.5 uM after 2 hrs in presence of PFK15 and CQ by Western blot analysis relative to PFK15; assay type: functional
[17] = tested on: HepG2; test: Induction of autophagy in human HepG2 cells assessed as ratio of LC3-2 level to total ERK level at 0.5 uM after 2 hrs in presence of PFKFB3 siRNA and CQ by Western blot analysis (reference value: 0.8); assay type: functional
[18] = tested on: HepG2; test: Activation of AMPKalpha in human HepG2 cells assessed as ratio of phosphorylated ACCalpha at S79 residue to total ERK level at 0.5 uM incubated for 4 hrs in presence of CC by Western blot analysis (reference value: 1.1); assay type: cell-based
[19] = tested on: HeLa; test: Antiproliferative activity against human HeLa cells assessed as reduction in cell viability by MTS assay; assay type: functional, cell-based
[20] = target: Serine/threonine-protein kinase mTOR (Homo sapiens) (UniProt P42345); test: Inhibition of mTOR phosphorylation at S2448 residue in human HepG2 cells assessed as ratio of phosphorylated mTOR to total mTOR level at 0.25 uM after 4 hrs by Western blot analysis (reference value: 1); assay type: cell-based
[21] = tested on: A549; test: Antiproliferative activity against human A549 cells assessed as reduction in cell viability by MTS assay; assay type: functional, cell-based
[22] = tested on: HepG2; test: Induction of autophagy in human HepG2 cells assessed as ratio of LC3-2 level to total ERK level at 0.5 uM after 2 hrs in presence of PFKFB3 siRNA by Western blot analysis (reference value: 0.8); assay type: functional
[23] = tested on: HepG2; test: Induction of autophagy in human HepG2 cells assessed as ratio of LC3-2 to total Erk1/2 protein level at 0.5 uM after 4 hrs in presence of CQ by Western blot analysis (reference value: 2.6); assay type: functional
[24] = tested on: HepG2; test: Induction of autophagy in human HepG2 cells assessed as ratio of LC3-2 level to total Erk1/2 protein level at 0.5 uM after 4 hrs in presence of CC and CQ by Western blot analysis (reference value: 2.4); assay type: functional
[25] = target: Serine/threonine-protein kinase mTOR (Homo sapiens) (UniProt P42345); test: Inhibition of mTOR phosphorylation at S2448 residue in human HepG2 cells assessed as ratio of phosphorylated mTOR to total mTOR level at 0.05 uM after 4 hrs by Western blot analysis (reference value: 1); assay type: cell-based
[26] = target: Serine/threonine-protein kinase mTOR (Homo sapiens) (UniProt P42345); test: Inhibition of mTOR phosphorylation at S2448 residue in human HepG2 cells assessed as ratio of phosphorylated mTOR to total mTOR level at 0.1 uM after 4 hrs by Western blot analysis (reference value: 1); assay type: cell-based
[27] = target: Serine/threonine-protein kinase mTOR (Homo sapiens) (UniProt P42345); test: Inhibition of mTOR phosphorylation at S2448 residue in human HepG2 cells assessed as ratio of phosphorylated mTOR to total ERK level at 0.5 uM after 4 hrs by Western blot analysis (reference value: 1); assay type: cell-based
[28] = tested on: HepG2; test: Induction of autophagy in human HepG2 cells assessed as ratio of LC3-2 level to total ERK level at 0.5 uM after 2 hrs in presence of HK2 siRNA by Western blot analysis (reference value: 3.1); assay type: functional
[29] = tested on: HepG2; test: Activation of AMPKalpha in human HepG2 cells assessed as ratio of phosphorylated AMPKalpha at T172 residue to total ERK level at 0.5 uM incubated for 4 hrs in presence of CC by Western blot analysis (reference value: 1); assay type: cell-based
[30] = target: Serine/threonine-protein kinase mTOR (Homo sapiens) (UniProt P42345); test: Inhibition of mTOR phosphorylation at S2448 residue in human HepG2 cells assessed as ratio of phosphorylated mTOR to total ERK level at 0.25 uM after 4 hrs by Western blot analysis (reference value: 1); assay type: cell-based
[31] = tested on: MCF7; test: Antiproliferative activity against human MCF7 cells assessed as reduction in cell viability by MTS assay; assay type: functional, cell-based

Structure (SMILES)	Ratio [1]	fold change (FC) [2]	Activity [3]	fold change (FC) [4]	Ratio [5]	Activity [6]	fold change (FC) [7]	fold change (FC) [8]	Ratio [9]	Ratio [10]	Ratio [11]	fold change (FC) [12]	Ratio [13]	Ratio [14]	Ratio [15]	fold change (FC) [16]	Ratio [17]	Ratio [18]	Activity [19]	Ratio [20]	other results
CCC1(SC)C(=O)N2[C@H]3N(C)c4ccccc4C3(C34c5ccccc5N(C)[C@@H]3N3C(=O)C(SC)([C@@H](C)O)N(C)C(=O)C3(SC)[C@H]4O)[C@H](O)C2(SC)C(=O)N1C (some centres not stated)	1.2	2.2	Active	4.6	1.6	Active	0.7	3.7	2.2	3.2	1.7	2.8	1.6	3.7	0.9	2.4	4.6	1.1	Active	2.2	Activity [21]: Active; Ratio [22]: 1; Ratio [23]: 3.1; Ratio [24]: 0.9; Ratio [25]: 1.8; Ratio [26]: 1.8; Ratio [27]: 1; Ratio [28]: 1.1; Ratio [29]: 0.9; Ratio [30]: 1; Activity [31]: Active
CC[C@@]12SS[C@]3(C(=O)N1C)[C@@H](O)C1(C45c6ccccc6N[C@@H]4N4C(=O)[C@]6([C@@H](C)O)SS[C@]4(C(=O)N6C)[C@H]5O)c4ccccc4N[C@@H]1N3C2=O (some centres not stated)	1.3	2.1	Active	4.8	1.5	Active	0.7	3.7	1.8	3.1	1.4	2.3	1.3	3.7	1	3.4	4.3	1	Active	1.4	Activity [21]: Active; Ratio [22]: 0.9; Ratio [23]: 2.8; Ratio [24]: 0.9; Ratio [25]: 1.4; Ratio [26]: 1.2; Ratio [27]: 1; Ratio [28]: 1.6; Ratio [29]: 0.9; Ratio [30]: 1; Activity [31]: Active
